As a reminder, the IC50 is the point on the concentration scale where inhibition reaches its midpoint. A higher IC50 goes with lower potency.

Experimental findings from patent US6951870B2, “Coumarin derivatives with COMT inhibiting activity” (Orion Corporation, priority 2000, dated 2005) are described below.

The assay concerns the target T1, S-COMT enzyme (Homo sapiens, UniProt P21964).
T1 sequence (P21964 1-221 isoform P21964-2): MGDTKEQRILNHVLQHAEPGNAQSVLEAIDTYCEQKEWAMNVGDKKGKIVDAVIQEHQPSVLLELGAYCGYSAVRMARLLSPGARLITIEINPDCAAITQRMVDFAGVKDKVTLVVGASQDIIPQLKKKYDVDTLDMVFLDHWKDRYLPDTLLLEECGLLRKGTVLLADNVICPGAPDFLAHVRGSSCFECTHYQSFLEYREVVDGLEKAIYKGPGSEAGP
In words: Determination of COMT activity (IC50). Format: biochemical. The conditions noted are these: S-COMT about 30 nM, 3 mM dopamine substrate, 0.05 mM AdoMet, 5 mM MgCl2, pH 7.4, 37° C., 15 min. The protocol:
Experiment I: Determination of COMT Activity (IC50)
The determination of IC50 was performed by mesuring the COMT activity in a test sample which contained S-COMT enzyme (about 30 nM), 3 mM dopamine (as the substrate of COMT), 5 mM magnesium chloride, 0.05 mM S-adenosyl-L-methionine (AdoMet) and a test compound of the invention at various concentrations in 0.1 M phosphate buffer, pH 7.4, at 37° C.
The reaction in the test sample was initiated by adding the dopamine substrate to the sample mixture and, after incubation for 15 min at 37° C., the reaction was stopped with 4 M perchloric acid and stabilized further 10 min in ice bath. Thereafter the precipitated proteins were removed by centrifugation (4000×G for 10 min). The activity of COMT enzyme was measured by determining the concentration of the reaction products, 3-methyldopamine and 4-methyidopamine, by HPLC. The results were calibrated with 3-methyidopamine standards. See also T.Lotta et al., Biochemistry, vol.34(13), 1995, p.4204, T.Lotta et al. The IC50 value is the concentration of the test compound which causes a 50% decrease in COMT activity.
Compound `O=C(O)c1cc2cc(O)c(O)c([N+](=O)[O-])c2oc1=O` [Example 10(d), 6,7-Dihydroxy-8-nitro-2-oxo-2H-chromene-3-carboxylic acid] returned an IC50 of 35 nM.
Next, `O=C(O)c1cc2c([N+](=O)[O-])c(O)c(O)cc2oc1=O` [Example 9(c), 6,7-Dihydroxy-5-nitro-2-oxo-2H-chromene-3-carboxylic acid]: 20 nM; `O=C(c1ccccc1)c1cc2c([N+](=O)[O-])c(O)c(O)cc2oc1=O` [Example 7, 3-Benzoyl-6,7-dihydroxy-5-nitro-chromen-2-one]: 30 nM; `O=c1oc2c([N+](=O)[O-])c(O)c(O)cc2cc1-c1ccccc1` [Example 6(b), 6,7-Dihydroxy-8-nitro-3-phenyl-chromen-2-one]: 30 nM.
Next, `O=C(O)Cc1cc2c([N+](=O)[O-])c(O)c(O)cc2oc1=O` [Example 11(c), (6,7-Dihydroxy-5-nitro-2-oxo-2H-chromen-3-yl)-acetic acid]: 10 nM; `O=c1oc2cc(O)c(O)c([N+](=O)[O-])c2c2c1CCCC2` [Example 8, 2,3-Dihydroxy-1-nitro-7,8,9,10-tetrahydro-benzo[c]chromen-6-one]: 50 nM.
In turn, `O=c1oc2cc(O)c(O)c([N+](=O)[O-])c2cc1-c1nnn[nH]1` [Example 12(b), 6,7-Dihydroxy-5-nitro-3-(1H-tetrazol-5-yl)-chromen-2-one] returned an IC50 of 10 nM.
The result for `Cc1c(CC(=O)O)c(=O)oc2cc(O)c(O)c([N+](=O)[O-])c12` [Example 13(c), (6,7-Dihydroxy-4-methyl-5-nitro-2-oxo-2H-chromen-3-yl)-acetic acid] reads 60 nM.
